Laboratory results as given in PMC7795518, “Insights into the Interaction of LVV-Hemorphin-7 with Angiotensin II Type 1 Receptor” (International Journal of Molecular Sciences, 2020).

How the values were obtained:
dopamine 1 receptor = settings: allosteric modulator binding preferentially to ICL2; cited from earlier work
Excerpt: Positive allosteric binding sites of GPCRs have been identified in the past. However, recent studies have […] the potential of positive allosteric modulators in multiple GPCRs using in vitro and in silico approaches. Allosteric binding sites located near the extracellular (EC) face and IC face in different GPCRs have been documented. Allosteric sites near the orthosteric site in GPCRs often block the entry of other ligands. However, this would not be a problem for allosteric ligands that target the IC region. DETQ, an al ...

[1] = molecular target: T1, AngII type 1 receptor (AT1R) (Homo sapiens, UniProt P30556); experiment: Saturation NanoBRET binding of BODIPY-AngII to Nluc-AT1R in live HEK293FT cells
T1 construct: host or cells: HEK293FT
T1 sequence (P30556 1-359): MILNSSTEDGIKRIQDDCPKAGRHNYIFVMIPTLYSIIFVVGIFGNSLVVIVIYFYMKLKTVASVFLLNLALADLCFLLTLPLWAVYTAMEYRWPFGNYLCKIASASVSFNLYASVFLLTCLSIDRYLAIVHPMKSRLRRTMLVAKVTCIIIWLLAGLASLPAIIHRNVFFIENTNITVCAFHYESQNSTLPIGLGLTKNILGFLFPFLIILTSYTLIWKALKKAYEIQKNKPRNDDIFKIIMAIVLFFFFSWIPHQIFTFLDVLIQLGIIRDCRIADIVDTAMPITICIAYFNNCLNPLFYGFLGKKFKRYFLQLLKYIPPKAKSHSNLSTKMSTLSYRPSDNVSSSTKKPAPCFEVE
Method: Figure 1 Saturation binding of BODIPY-angiotensin II (AngII) to AngII type 1 receptor (AT1R) using NanoBRET assay in live HEK293FT cells. HEK293FT cells transiently expressing Nluc-AT1R (NanoBRET donor) were first treated with 10 μM LVV-H7 or vehicle (A) or 1 μM olmesartan medoxomil or vehicle (B) for 20 min at 37 °C. […] Data are mean ± SEM of four (A) or three (B) independent experiments performed in duplicate.
(A) HEK293FT cells transiently expressing Nluc-AT1R (NanoBRET donor) were first treated with 1 μM olmesartan medoxomil or vehicle and then immediately treated with 0, 10, or 100 μM LVV-H7. […] Specific binding curves were generated by subtracting olmesartan medoxomil-treated wells from vehicle-treated wells for each concentration of LVV-H7.
(§1) The NanoLuc-AT1R coding plasmid (Promega, Madison, WI, USA) was used for its transient expression in HEK293FT cells as previously reported.
(§2) Human embryonic kidney (HEK) 293FT cells (Thermo Fisher Scientific) were cultured and maintained at 37 °C, 5% CO2 in complete medium (Dulbecco’s modified Eagle’s medium (DMEM) containing 0.3 mg/mL glutamine, 100 IU/mL penicillin, and 100 μg/mL streptomycin) supplemented with 10% fetal calf serum (FCS) (Bovogen Biologicals, Victoria, Australia) and 400 μg/mL Geneticin (Thermo Fisher Scientific). Transient transfections were carried out 24 h after seeding 600,000 cells/well of a 6-well plate. FuGENE 6 (Promega) transfection reagent was used according to the manufacturer’s instructions. Cells were harvested with 0.05% Trypsin-EDTA 24 h after transfection and seeded into poly-L-lysine (Sigma Aldrich) coated white 96-well plates (Greiner Bio-One, Frickenhausen, Germany) at 80,000 cells/well in phenol red-free DMEM containing 25 mM HEPES, 0.3 mg/mL glutamine, 100 IU/mL penicillin, and 100 μg/mL streptomycin supplemented with 5% FCS.
The NanoLuc substrate furimazine (Promega) was then added to a final concentration of 10 μM and light emission was measured at 37 °C using the filters 450 nm (80-nm bandpass) and >610 nm (longpass) on the LUMIstar or CLARIOstar multilabel plate reader (BMG Labtech (Australia), Mornington, VIC, Australia).
The NanoBRET ratios were determined by dividing the >610 nm (longpass) emission by 450 nm (80-nm bandpass) emission and subtracting the background ratio. Then, the percentage of NanoBRET signals were calculated as described in figure legends. The saturation and kinetic curves were fitted with the appropriate nonlinear regression equations using GraphPad Prism software (San Diego, CA, USA). Statistical analyses were performed with paired one-way ANOVA or paired t-tests as appropriate to determine statistical significance between the different conditions. **** p-value < 0.0001, *** p-value < 0.001, ** p-value < 0.01, * p-value < 0.05, and ns p-value > 0.05.

[2] = molecular target: T1, AngII type 1 receptor (AT1R); experiment: Real-time NanoBRET kinetics of BODIPY-AngII binding to Nluc-AT1R in live HEK293FT cells; settings: 10 μM LVV-H7, 30 min pre-incubation, 100 nM BODIPY-AngII
Method: as §1, §2
The NanoBRET ratios were determined by dividing the >610 nm (longpass) emission by 450 nm (80-nm bandpass) emission and subtracting the background ratio. Then, the percentage of NanoBRET signals were calculated as described in figure legends. […]

AT1R = settings: HEK293 cells; Gαq/inositol phosphate pathway and ERK1/2 phosphorylation; cited from earlier work
Excerpt: Hemorphins are endogenous hemoglobin-derived peptides implicated in numerous physiological and pathophysiological situations including spatial learning, inflammation, analgesia, and transient hypotension. The molecular targets of hemorphins comprise the cell-surface G protein-coupled receptor (GPCR) members such as the opioid receptors and also the membrane AngIV receptor [3, 8]. Moreover, hemorphins are also known for their inhibitory effects on the angiotensin-converting enzyme (ACE), a key enzyme in the renin–angiotensin system (RAS). ...

C[C@H]1c2cccc(C(C)(C)O)c2C[C@H](CO)N1C(=O)Cc1c(Cl)cccc1Cl [DETQ]
effect on potency of dopamine (dopamine 1 receptor): significantly enhanced the potency of dopamine

CCCc1nc(C(C)(C)O)c(C(=O)OCc2oc(=O)oc2C)n1Cc1ccc(-c2ccccc2-c2nnn[nH]2)cc1 [olmesartan medoxomil, reference compound]
displacement of BODIPY-AngII binding ([1]; 1 μM olmesartan medoxomil, 20 min at 37 °C before BODIPY-AngII 40 min, three independent experiments in duplicate): ~ 75%

LVVYPWTQRF [LVV-H7, LVV-hemorphin-7, decapeptide LVV-hemorphin-7 ([…]) (New England Peptide)]
competition for binding with BODIPY-AngII ([1]; 10 μM LVV-H7, 20 min at 37 °C before BODIPY-AngII 40 min, four independent experiments in duplicate): did not compete for binding with BODIPY-AngII
effect on maximum binding (Bmax) of BODIPY-AngII ([1]; LVV-H7 0, 10, 100 μM, saturation binding, n = 6): without altering the maximum binding
decrease of AngII's kD ([1]; NanoBRET in HEK293FT cells, effect of LVV-H7): 2.6 fold
effect on binding of BODIPY-AngII ([1]; increasing LVV-H7 (0, 10, 100 μM), n = 6): significantly potentiated the binding of BODIPY-AngII
effect on maximal binding of BODIPY-AngII (kinetics) ([2]; n = 4, p < 0.05): significantly increased the maximal binding of BODIPY-AngII
effect on binding rate (T1/2) of BODIPY-AngII ([2]; n = 4, p > 0.05): no effect on the binding rate
modulation of AT1R activity and downstream signaling (AT1R): positive modulation of its activity and downstream signaling pathways in HEK293 cells
